US20250186321A1, “FORMULATION USING AMINO ACID AND CARBOXYLIC ACID, ORGANIC SALT, AND COMPOSITION COMPRISING SAME AND USE THEREOF” (MIYOSHI OIL & FAT CO., LTD., priority 2021, published 2025)
Each block holds one compound with its values, some of them ahead of it.

Assays:
[1] = Appearance of formulation (state at 25° C.); type: physicochemical; conditions: 25° C.
Experimental: Formulations 1 to 427 shown in Tables 1A to 1D were prepared by the above-described method using the components (A) and (B) at the compounding molar ratios shown in the tables, and their states at 25° C. were observed.

[2] = Appearance of formulation (state at 25° C.); type: physicochemical; conditions: formulation at the compounding molar ratio listed
[3] = Water retention evaluation (moisture reduction rate); type: physicochemical; conditions: for Moisture eduction rate / Moisture content before test (A): 80 wt. % aqueous solution; for Moisture eduction rate: 24 hours at 35° C. and 25% RH, calculated from A and B; for Moisture content before test (A): Karl Fischer; for Presence or absence of hydrates: left until the moisture content remained unchanged, based on final moisture content
Experimental: 80 wt. % aqueous solutions of the formulations (organic salts) of the working examples 428 to 459 and comparative examples 1 to 5 in Tables 2A and 2B were prepared, and the water contents were measured using a Karl Fischer moisture meter (CA-200 manufactured by Mitsubishi Chemical Analytech Co., Ltd.). It was confirmed that the water contents of them were 20.0 wt. % (moisture content before test: A). Each of the 1.0 g samples was added to a screw tube, and left uncovered to stand still for 24 hours in a constant temperature and humidity bath (KCL-2000W manufactured by Tokyo Rikakikai Co., Ltd.) which was set at 35° C. and 25% RH. Moisture contents after being left for 24 hours were measured again (moisture content after test: B) to evaluate their water retention property by using the following formula for calculating the moisture reduction rates. After that, it was left to stand still until the moisture content remained unchanged, and determinations of the hydrate and the number of hydrated water were made based on the final moisture contents. • Moisture content before test: A (%) • Moisture content after test: B (%)

[4] = Solubility evaluation of polyoxyethylene alkyl ether (AE) in the formulations; type: physicochemical; conditions: polyoxyethylene alkyl ether (Peletex 2465); left at 25° C. for 24 hours, visual
Experimental: Into 20 wt. % aqueous solutions of the formulations (organic salts) shown in Table 10 are dissolved methylparaben (manufactured by Tokyo Kasei, hereinafter, paraben) at 1.0 wt. %, 0.5 wt. % and 0.25 wt. % at 80° C. to prepare the respective antibacterial compositions.
Polyoxyethylene alkyl ether (hereinafter referred to as AE) which is an antiviral substance recognized to be effective against viruses was also subjected to the similar procedure to evaluate the solubility based on the above-mentioned criteria. As the AE, Peletex 2465, manufactured by Miyoshi Oil & Fats Co., Ltd., was used. (Table 10)

[5] = Hygroscopicity evaluation (moisture content); type: physicochemical; conditions: for Hygroscopicity test Moisture content after test: dried in vacuum at 60° C. for 18 hours, then 1 month at room temperature, Karl Fischer; for Presence or absence of hydrates / n-hydrate: hygroscopicity test, Table 3
Experimental: The working examples 460 to 470 and the comparative example 6 in Table 3 were completely dried in a vacuum dryer at 60° C. for 18 hours, and then left to stand still at room temperature for 1 month whose moisture contents were then measured using a Karl Fischer moisture meter (CA-200 manufactured by Mitsubishi Chemical Analytech Co., Ltd.) to evaluate their hygroscopicity.

Staphylococcus aureus [6] = experiment: Antibacterial property evaluation 2 (halo test 1); type: cell-based; conditions: JISL1902
Description: The following reagents, etc, were used for minimum inhibitory concentration (MIC) measurement and halo test. • Staphylococcus aureus: strain of NBRC15035, NITE • Escherichia coli: strain of […], NITE • Potassium lactate manufactured by Fujifilm Wako Pure Chemical • Medium of Muller-Hinton broth: Becton, Dickinson and Company • Media for revival of L-dried specimens “DAIGO” manufactured by Fujifilm Wako Pure Chemical • Calcium chloride manufactured by Fuji Film Wako Pure Chemical • Magnesium chloride manufactured by Fuji Film Wako Pure Chemical • […] Snow Brand • Meat extract: from Solabia Biokar Diagnostics • Peptone: from Solabia Biokar Diagnostics • Sodium chloride manufactured by Fuji Film Wako Pure Chemical • Agar manufactured by Fuji Film Wako Pure Chemical […]

[7] = Component (A) amino acid; cited from earlier work
[8] = Adhesiveness evaluation (adhesion rate to filter paper); type: physicochemical; conditions: vacuum dehydration for 8 hours at 60° C.
Experimental: The adhesion rates of the samples were each calculated from the weight change of the filter paper (Table 9). As a blank test, 100 μL of water was dropped on the filter paper, and this filter paper was dried in a vacuum. The change in weight was measured and used as the correction value.

Escherichia coli [9] = experiment: Antibacterial property evaluation 1 (minimum inhibitory concentration, broth microdilution); type: cell-based; conditions: broth microdilution method
Description: (§1) The following reagents, etc, were used for minimum inhibitory concentration (MIC) measurement and halo test. • Staphylococcus aureus: strain of NBRC15035, NITE • Escherichia coli: strain of […], NITE • Potassium lactate manufactured by Fujifilm Wako Pure Chemical • Medium of Muller-Hinton broth: Becton, Dickinson and Company • Media for revival of L-dried specimens “DAIGO” manufactured by Fujifilm Wako Pure Chemical • Calcium chloride manufactured by Fuji Film Wako Pure Chemical • Magnesium chloride manufactured by Fuji Film Wako Pure Chemical • Skim milk: Megmilk Snow Brand • Meat extract: from Solabia Biokar Diagnostics • Peptone: from Solabia Biokar Diagnostics • Sodium chloride manufactured by Fuji Film Wako Pure Chemical • Agar manufactured by Fuji Film Wako Pure Chemical
(§2) Working examples 556 to 583 and the comparative example 19 shown in Tables 8A and 8B were subjected to the minimum inhibitory concentration (MIC) test against Escherichia coli and Staphylococcus aureus by the broth microdilution method (as described in the standard method of the Japanese Society of Chemotherapy) to study antibacterial activities of the formulations (organic salt). Formulation (organic salt) concentrations at 250, 200, 150, 100, 50, 25, 12.5, 8, 4, 2, 0.8, 0.4, 0.2, 0.1, 0.05 mg/mL were evaluated, and the MICs are shown in Tables 8A and 8B.

Staphylococcus aureus [10] = experiment: as above; type: cell-based; conditions: broth microdilution method
Description: as §1, §2

[11] = Evaluation on permeability to skin (tape stripping, ascorbyl glucoside); type: in vivo; conditions: scale 1(Slow) to 5(Fast), 10 wt. % aqueous solution with 5 wt. % ascorbyl glucoside, layers 1 to 8, 5 test subjects
Experimental: As for the comparative example 33, ascorbyl glucoside was added so as to be 5% by mass with respect to water to prepare a sample solution. Then, a cotton material impregnated with the prepared 750 μL sample solution was applied to a 1 cm×3 cm area of the inner side of an upper arm for each of the 5 test subjects who have been kept in quiet for 30 minutes under constant temperature and humidity, and allowed to stand still for 5 minutes. After removing the cotton material, a new cotton material was used to remove the sample having been left on the skin surface and then allowed to stand still for 30 minutes. The horns in the first to eighth layers were then harvest from the application site using a Cellotape® (manufactured by Nichiban Co., Ltd.), and all of the layers obtained from the tape were used as samples for assay.
The obtained sample for assay was then extracted with 2 ml of ion-exchange water over the course of 10 min. […] The measured values of the samples for assay that were harvested from the 5 test subjects were averaged, and the averaged value was regarded as the permeation amount (μg/cm^2) to make a comparison of the total permeation amounts for the first to eighth layers. […]

Escherichia coli [12] = experiment: Antibacterial evaluation of antibacterial composition (with paraben); type: cell-based; conditions: 1.0 mg/mL paraben and/or 1.0 mg/mL formulation
Experimental: as §2
(§3) Antibacterial compositions prepared to have the composition having the components (A) and (B) and paraben in an equal amount (working examples 597 to 612, wherein 1.0 mg/mL of paraben and 1.0 mg/mL of the respective working examples 597 to 612 are combined to be 2.0 mg/mL of the composition); the comparative example 27 containing only of water and paraben (at the concentration of 1.0 mg/mL of paraben); and reference example 1 containing L-lysine and citric acid (at the concentration of 1.0 mg/mL) were each subjected to a test performed by a method similar to and as explained in the section of 9-1 based on the presence or absence of the bacterial growth to evaluate the presence or absence of the antibacterial activity.

Staphylococcus aureus [13] = experiment: as above; type: cell-based; conditions: 1.0 mg/mL paraben and/or 1.0 mg/mL formulation
Experimental: as §2, §3

[14] = components (A) and (B) at the compounding molar ratio shown

state at 25° C. [1]: Solid | state at 25° C. ([2]; Tables 2A/2B): Liquid | Moisture eduction rate [3]: 71.5% | Moisture content before test (A) [3]: 20.0% | Presence or absence of hydrates [3]: Absent
Structure (SMILES): CCCCn1cc[n+](C)c1.F[B-](F)(F)F [Formulation 431]
Solubility into 20 wt. % aqueous solution of the formulations: AE [4]: ⊚ (1.0 wt. % or more; no crystal precipitation was observed)

Structure (SMILES): CCCCCCCC/C=C\CCCCCCCC(=O)O.CCCCCCCC/C=C\CCCCCCCC(=O)O.N=C(N)NCCC[C@H](N)C(=O)O [Formulation 70]
Hygroscopicity test Moisture content after test [5]: 9.4% | Presence or absence of hydrates [5]: Present | n-hydrate [5]: Multihydrate | state at 25° C. [1, 14]: Liquid | state at 25° C. ([2]; Table 3): Liquid

state at 25° C. [1]: Liquid
Structure (SMILES): CCO [Formulation 436]
Halo test 1: Presence or absence of halo (Staphylococcus aureus [6]; Concentration 10 Wt. % aqueous solution on filter paper): Absent | Halo test 1: Presence or absence of halo (Staphylococcus aureus [6]; Concentration 50 Wt. % aqueous solution on filter paper): Absent

Structure (SMILES): O=C(O)[C@@H]1CCCN1 [proline]
isoelectric points of amino acids (values in parentheses) [7]: (6.30)

Structure (SMILES): CCCCCCCC/C=C\CCCCCCCC(=O)O.NCCCC[C@H](N)C(=O)O [Formulation 7]
Hygroscopicity test Moisture content after test [5]: 2.1% | Presence or absence of hydrates [5]: Present | n-hydrate [5]: Multihydrate | state at 25° C. [1, 14]: Solid | state at 25° C. ([2]; Table 3): Solid

Structure (SMILES): CCCC[N+](CCCC)(CCCC)CCCC.[Br-] [Formulation 430]
state at 25° C. [1]: Solid | state at 25° C. ([2]; Tables 2A/2B): Solid | Moisture eduction rate [3]: 70.0% | Moisture content before test (A) [3]: 20.0% | Presence or absence of hydrates [3]: Absent | Solubility into 20 wt. % aqueous solution of the formulations: AE [4]: ⊚ (1.0 wt. % or more; no crystal precipitation was observed)

adhesion to the filter paper [8]: did not adhere to the filter paper
Structure (SMILES): CCO [ethanol, reference compound]
presence or absence of halos (halo test 1) (Staphylococcus aureus [6]; Staphylococcus aureus): no halo was observed

Structure (SMILES): CSCC[C@H](N)C(=O)O [methionine]
isoelectric points of amino acids (values in parentheses) [7]: (5.74)

state at 25° C. [1]: Solid | MIC Escherichia coli (Escherichia coli [9]): 100 mg/mL | MIC Staphylococcus aureus (Staphylococcus aureus [10]): 150 mg/mL | state at 25° C. ([2]; Tables 2A/2B): Solid | Moisture eduction rate [3]: 87.5% | Moisture content before test (A) [3]: 20.0% | Presence or absence of hydrates [3]: Absent
Structure (SMILES): CC(O)C(=O)[O-].[K+] (stereo not drawn) [Formulation 428]

state at 25° C. ([2]; Tables 2A/2B): Liquid | Moisture eduction rate [3]: 89.7% | Moisture content before test (A) [3]: 20.0% | Presence or absence of hydrates [3]: Absent | Relative infiltration rates of active component (ascorbyl glucoside) into skin [11]: 5
Structure (SMILES): OCC(O)CO [Formulation 432]

Structure (SMILES): N[C@@H](Cc1ccccc1)C(=O)O [phenylalanine]
isoelectric points of amino acids (values in parentheses) [7]: (5.48)

Structure (SMILES): COC(=O)c1ccc(O)cc1 [compound 27, methylparaben]
presence or absence of the antibacterial activity (Escherichia coli [12]): does not exhibit any antibacterial activity | presence or absence of the antibacterial activity (Staphylococcus aureus [13]): does not exhibit any antibacterial activity

Structure (SMILES): N[C@@H](Cc1c[nH]c2ccccc12)C(=O)O [tryptophan]
isoelectric points of amino acids (values in parentheses) [7]: (5.89)

Structure (SMILES): N[C@@H](CS)C(=O)O [cysteine]
isoelectric points of amino acids (values in parentheses) [7]: (5.07)

Hygroscopicity test Moisture content after test [5]: 0.0% | state at 25° C. ([2]; Table 3): Solid
Structure (SMILES): CCCCCCCC/C=C\CCCCCCCC(=O)[O-].[Na+] [Formulation 433, reference compound]

Structure (SMILES): CC(O)C(=O)O.N=C(N)NCCC[C@H](N)C(=O)O [Formulation 52]
state at 25° C. [1, 14]: Liquid | state at 25° C. ([2]; Tables 2A/2B): Liquid | Moisture eduction rate [3]: 24.3% | Moisture content before test (A) [3]: 20.0% | Presence or absence of hydrates [3]: Present | n-hydrate ([3]; number of hydrated water based on final moisture content): Mono-
